# Measured values as given in patent publication US7122335B1, “Compounds and methods to enhance rAAV transduction” (priority 1999, dated 2006).
# What was measured:
# [1] = system: polarized human bronchial epithelial cells; type: cell-based
# Procedure: FIGS. 7A and 7B. Proteasome inhibitors differentially augment rAAV transduction from the apical or basolateral surfaces of airway epithelia. The efficiency and time course of rAAV transduction were evaluated in polarized airway epithelial cultures following infection with rAV.GFPori3 (MOI=10,000 particles/cell) in the presence or absence of 40 μM LLnL. Transgene expression was monitored by indirect fluorescence microscopy at the indicted time points by quantifying the mean number of GFP positive cells per 10× field (mean +/−SEM of 3 independent samples for each time point). The effect of LLnL treatment was compared between matched sets of tissue samples at each time point following infection from the apical (FIG. 7A) or basolateral (FIG. 7B) surfaces. The photomicrographs on the right side of each figure illustrate representative 20× fields for the 3 and 22 day post-infection time points.
# FIG. 9. Effects of different agents on AAV transduction from the basal surface of polarized bronchial epithelia. Fully differentiated human bronchial airway epithelia were treated with the indicated agents at the time of AAV infection (MOI=10,000 particles/cell) from the basolateral surface. […] Since most of the tested agents (except for hydroxyurea) were dissolved in DMSO, a vehicle control of 1% (vol/vol) DMSO was also performed to exclude the possibility of a non-specific effect. GFP expression was monitored at 48 hours post-infection by counting the number of GFP positive cells per 10 random 10× fields in the culture dishes. The data represent the mean +/−SEM of three independent infections for each tested chemical.
# FIG. 10. The proteasome inhibitor LLnL preferentially induces AAV transduction in ciliated cells. The cell types transduced by AAV were examined by alkaline phosphatase staining 3 days following basolateral infection of polarized epithelial cultures with AV.Alkphos infection (MOI=10,000 particles/cell) in the presence of or absence of 40 μM LLnL. […] 8 μm paraffin sections were used to histologically quantify the types of cells transduced. Three classifications were used, ciliated cells (with alkphos expression localized to the apical membrane and cilia), basal cells residing in the lower half of the epithelium with no contact with the lumen, and non-ciliated, columnar cells. Panel C (without LLnL) and D (with LLnL) show representative neutral red counter-stained cross-sections for each condition. The numbers of alkphos stained cells/2000 epithelial cells for the various cell types transduced by AAV are presented in panel E (mean +/−SEM from three independent Millicell insert samples).
# FIGS. 11A and 11B. Optimization of LLnL-enhanced transduction in polarized bronchial epithelia. Differentiated transwell cultures were infected with AV.GFP3ori (10,000 particles/cell) from either the basolateral (FIG. 11A) or the apical (FIG. 11B) surface with the indicated treatments involving LLnL and/or EGTA. All infections were carried out for 24 hours and GFP transgene expression was monitored by indirect fluorescent microscopy at the indicated times. Data represent the mean (+/−SEM, N=6) for each experimental condition. Experiments were performed in triplicate on transwells derived from samples obtained from two different patients. […]
# [2] = system: human bronchial epithelia; test: Southern blot of Hirt DNA for rAAV genomes in polarized airway epithelia; type: cell-based
# Procedure: FIGS. 15A–C. Examination of rAAV endocytosis by Southern blot analysis of viral DNA. Hirt DNA from AV.GFP3ori infected or mock infected (Lanes 1 and 7 in both FIGS. 15A and 15B) human bronchial epithelia were extracted for a direct examination of viral genomes by Southern blotting against a P^32-labeled EGFP probe. FIG. 15A depicts viral binding studies in the presence and absence of LLnL with or without EGTA treatment prior to apical or basolateral infection for 1 hour at 4° C. Cell surface-bound virus was completely removed by trypsin (FIG. 15A, lanes 2 through 6). To determine the amount of the surface-bound rAVV, cells were infected with AV.GFP3ori for 1 hour at 4° C. and were not treated with trypsin prior to Hirt DNA extraction. Panel A: lane 8: apical AAV infection; lane 9: apical AAV infection in the presence of LLnL; lane 10: cells were pre-treated with hypotonic EGTA prior to apical infection in the presence of LLnL; lane 11: basolateral infection; lane 12: basolateral infection in the presence of LLnL. FIG. 15B depicts the results of studies evaluating rAAV internalization from either the apical or the basolateral surface in the presence or absence of LLnL, and the internalization from the apical surface after combined treatment with hypotonic EGTA and LLnL. To detect the net amount of the internalized viral genome, all samples in FIG. 15B were treated with trypsin just before Hirt DNA was harvested. The extent of the internalized virus at 4 hours (FIG. 15B, lanes 2 through 6) and 24 hours (FIG. 15B, lanes 8 through 12) incubation at 37° C. after infection is represented by the intensity of the 1.6 kb single stranded viral genome band. FIG. 15B; lane 2; apical AAV infection for 4 hours; lane 3: apical AAV infection in the presence of LLnL for 4 hours; lane 4: cells were pre-treated with hypotonic EGTA prior to apical infection in the presence of LLnL for 4 hours; lane 5: basal infection for 4 hours; lane 6: basolateral infection in the presence of LLnL for 4 hours; lane 8: apical infection for 24 hours; lane 9: apical infection in the presence of LLnL for 24 hours; lane 10: cells were pre-treated with hypotonic EGTA prior to apical infection in the presence of LLnL for 24 hours; lane 11: basolateral infection for 24 hours; lane 12: basolateral infection in the presence of LLnL for 24 hours. […]
# Molecular analysis of rAAV viral genomes owing infection of polarized airway epithelial cultures. […] Following binding, the extent of viral internalization was assessed by continuing incubations in the presence of virus at 37° C. for 4–24 hours. […] The 1.6 kb single stranded viral DNA, the 2.7 kb double stranded circular intermediate, and the 4.7 kb double stranded replication from viral genome were detected with a transgene EGFP specific probe at 5×10^6 cpm/ml. […]
substance,measurement,setting,value
N-acetyl-L-leucinyl-L-leucinal-L-norleucinal [LLnL],time of peak augmentation in AAV transduction,[1]; LLnL and rAAV co-administered to the mucosal surface,22 days post-infection
same,maximal level of transgene expression relative to basal infection,"[1]; apical infection with LLnL, by 30 days",one eighth
same,enhancement in rAAV transduction from the basolateral surface,"[1]; basolateral (serosal) infection MOI 10,000, agent at time of infection, GFP at 48 hours/2 days, camptothecin 0.1 μM, etoposide 10 μM, hydroxyurea 40 mM, genistein 50 μM, LLnL 40 μM",greater than 200 fold
same,effect of repeated LLnL administration on transgene expression,"[1]; basolateral infection, LLnL once every three days",increased length of peak transgene expression
same,toxicity to cultured airway cells,[1]; continual exposure to 40 μM LLnL in basal medium after basolateral infection,toxic to cells and ablated transgene expression by 10 days
same,time of transient peak in gene expression,[1]; rAAV infection from the serosal surface in the presence of LLnL,72 hours post-infection
same,AV.Alkphos transduction,"[1]; serosal application of AV.Alkphos, 40 μM LLnL, 3 days",dramatic increase in AV.Alkphos transduction
same,rAAV binding to either surface (Southern blot),[2]; 1 hour at 4° C.,not affected
same,enzymatic degradation of internalized AAV viral DNA,[2]; LLnL alone,did not substantially prevent enzymatic degradation
same,amount of virus internalized from apical surface,[2]; hypotonic EGTA pretreatment and LLnL,substantially increased the amount of virus internalized
